Source: ChEMBL document CHEMBL5500363, “Discovery of novel ocotillol derivatives modulating glucocorticoid receptor/NF-κB signaling for the treatment of sepsis” (Eur J Med Chem, 2024)
Calls of active or inactive are those of the source. The rule behind the calls is not given here.

Tests used:
[1] = test system: RAW264.7; assay: Upregulation of glucocorticoid receptor mRNA expression in LPS-treated mouse RAW264.7 cells incubated for 24 hrs by qRT-PCR analysis; assay type: functional, cell-based
[2] = target: T1, Glucocorticoid receptor (Mus musculus) (UniProt P06537); assay: Binding affinity to glucocorticoid receptor in mouse RAW264.7 cells assessed as thermal stability by measuring protein degradation at 47 degreeC at 10 to 40 uM pretreated for 24 hrs followed by heat exposure for 3 mins and subsequently incubated at room temperature for 3 mins by CETSA; assay type: cell-based; details: dose 10-40 µM, time 1446.0 min
T1 sequence (whole entry): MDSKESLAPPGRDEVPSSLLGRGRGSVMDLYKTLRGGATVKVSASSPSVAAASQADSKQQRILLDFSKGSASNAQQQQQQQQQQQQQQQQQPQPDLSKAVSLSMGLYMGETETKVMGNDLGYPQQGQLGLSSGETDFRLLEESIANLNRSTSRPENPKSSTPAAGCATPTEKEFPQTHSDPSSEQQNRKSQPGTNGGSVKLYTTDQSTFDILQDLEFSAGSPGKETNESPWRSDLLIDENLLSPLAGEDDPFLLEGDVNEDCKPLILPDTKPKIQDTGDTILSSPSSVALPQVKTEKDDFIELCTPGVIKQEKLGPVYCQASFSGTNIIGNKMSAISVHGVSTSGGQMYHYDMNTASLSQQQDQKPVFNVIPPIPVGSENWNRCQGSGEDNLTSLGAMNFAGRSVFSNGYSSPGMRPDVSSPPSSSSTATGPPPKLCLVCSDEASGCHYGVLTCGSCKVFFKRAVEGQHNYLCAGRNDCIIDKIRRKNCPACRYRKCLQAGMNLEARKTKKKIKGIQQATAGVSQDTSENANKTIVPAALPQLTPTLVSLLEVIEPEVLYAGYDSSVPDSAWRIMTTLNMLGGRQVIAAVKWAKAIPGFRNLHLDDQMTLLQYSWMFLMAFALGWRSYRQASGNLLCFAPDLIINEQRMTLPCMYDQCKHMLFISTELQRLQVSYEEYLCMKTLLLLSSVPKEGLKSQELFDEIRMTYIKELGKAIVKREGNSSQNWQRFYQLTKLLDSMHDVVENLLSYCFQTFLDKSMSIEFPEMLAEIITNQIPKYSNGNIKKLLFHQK

[3] = test system: RAW264.7; assay: Anti-inflammatory activity in mouse RAW264.7 cells assessed as inhibition of LPS-induced TNF-alpha production pretreated for 2 hrs followed by LPS stimulation for 24 hrs by ELISA; assay type: functional, cell-based; details: dose 5-20 µM, time 26.0 hrs
[4] = target: T1, Glucocorticoid receptor (Mus musculus); assay: Binding affinity to glucocorticoid receptor in mouse RAW264.7 cells assessed as increase in thermal stability at 47 degreeC pretreated for 24 hrs followed by heat exposure for 3 mins and subsequently incubated at room temperature for 3 mins by CETSA; assay type: cell-based; details: dose 2.5-40 µM, time 1446.0 min
[5] = test system: Mus musculus; assay: Anti-septic activity in LPS-induced sepsis BALB/c mouse assessed as reduction in serum CRP level at 7.5 to 30 mg/kg administered via gavage for 3 days followed by LPS treatment for 6 hrs; assay type: functional, organism-based; details: dose 7.5-30 mg/kg, time 78.0 hrs
[6] = test system: Mus musculus; assay: Anti-septic activity in LPS-induced sepsis BALB/c mouse assessed as reduction in serum IL-6 level at 7.5 to 30 mg/kg administered via gavage for 3 days followed by LPS treatment for 6 hrs by ELISA; assay type: functional, organism-based; details: dose 7.5-30 mg/kg, time 78.0 hrs
[7] = test system: RAW264.7; assay: Inhibition of LPS-induced NO production in mouse RAW264.7 cells at 10 uM pretreated for 2 hrs followed by LPS stimulation for 24 hrs by Griess assay relative to control; assay type: functional; details: time 26 hrs
[8] = test system: Mus musculus; assay: Anti-septic activity in LPS-induced sepsis BALB/c mouse assessed as reduction in serum AST level at 30 mg/kg administered via gavage for 3 days followed by LPS treatment for 6 hrs; assay type: functional, organism-based; details: time 78.0 hrs
[9] = test system: Mus musculus; assay: Upregulation of glucocorticoid receptor expression in liver of LPS-induced sepsis BALB/c mouse model at 7.5 to 30 mg/kg administered via gavage for 3 days followed by LPS treatment for 6 hrs by immunofluorescence analysis; assay type: functional, organism-based; details: dose 7.5-30 mg/kg, time 78.0 hrs

Activity [2]: Active
Activity [4]: Dose-Dependent Effect
SMILES: CC(C)(C)OC(=O)CCC(=O)Nc1nc2c(s1)C[C@]1(C)[C@H]3C[C@@H](O)[C@@H]4C([C@]5(C)CC[C@@H](C(C)(C)O)O5)CC[C@@]4(C)[C@]3(C)CC[C@H]1C2(C)C (some centres undefined)
Activity [1]: Active
inhibition [3]: Dose-Dependent Effect
Activity [5]: Active
Activity [6]: Active
inhibition at 10 µM [7]: 52.6%
Activity [8]: Active
Activity [9]: Active
